Data on ten compounds can be found in patent publication EP4428124A1, “MODULATORS OF SORTILIN ACTIVITY” (Vesper Bio Aps, priority 2023, dated 2024).

Counter-ions that a name gives are not always drawn.

One assay has as its target T1, Human (6-His)Sortilin (Homo sapiens, UniProt Q99523).
T1 construct: purchased RnD Systems
T1 sequence (Q99523 78-831): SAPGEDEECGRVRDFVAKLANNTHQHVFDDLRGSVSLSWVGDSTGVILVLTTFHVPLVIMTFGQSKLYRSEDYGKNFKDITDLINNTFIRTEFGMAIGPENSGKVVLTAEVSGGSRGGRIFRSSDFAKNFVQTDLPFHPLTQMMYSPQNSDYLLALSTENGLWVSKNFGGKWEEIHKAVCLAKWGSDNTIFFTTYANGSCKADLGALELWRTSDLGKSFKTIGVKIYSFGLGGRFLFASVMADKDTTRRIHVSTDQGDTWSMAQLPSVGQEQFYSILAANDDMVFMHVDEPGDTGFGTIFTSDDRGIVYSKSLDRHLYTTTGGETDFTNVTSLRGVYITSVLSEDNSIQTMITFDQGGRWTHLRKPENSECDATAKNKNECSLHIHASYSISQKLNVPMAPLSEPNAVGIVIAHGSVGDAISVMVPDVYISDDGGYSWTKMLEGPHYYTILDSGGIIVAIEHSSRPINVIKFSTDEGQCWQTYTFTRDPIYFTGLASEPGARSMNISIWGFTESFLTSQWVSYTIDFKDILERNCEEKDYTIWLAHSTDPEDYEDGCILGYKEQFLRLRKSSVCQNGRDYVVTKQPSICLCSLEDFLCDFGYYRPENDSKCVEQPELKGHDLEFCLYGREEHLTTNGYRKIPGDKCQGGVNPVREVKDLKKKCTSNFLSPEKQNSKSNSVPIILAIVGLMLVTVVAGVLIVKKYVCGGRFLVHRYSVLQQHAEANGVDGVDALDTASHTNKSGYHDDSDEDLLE
The experiment in a line: Human Sortilin GCI (Grating-Coupled Interferometry) binding assay. Particulars: immobilised Human (6-His)Sortilin, Creoptix WAVE-RAPID, single concentration, 1:1 kinetic model; read-out: h-Sortilin GCI KD.

Another assay concerns the target T2, h-Sortilin (Homo sapiens, UniProt Q99523).
T2 sequence (Q99523 78-831): T1 sequence (Q99523 78-831)
Put plainly: Neurotensin scintillation proximity assay (SPA). The assay is classed as binding. Particulars: displacement of 5 nM [3H]-Neurotensin, 150 nM 6his-Sortilin; average of at least 2 determinations. Here is the method:
NTS, which is a 13 amino acid neuropeptide, is a sortilin ligand. […] Compound affinity was determined by measuring the displacement of [^3H]-neurotensin binding to h-Sortilin in SPA format. Total volume of 40 µl in 50 mM HEPES pH 7.4 assay buffer containing 100 mM NaCl, 2.0 mM CaCl2, 0.1 % BSA and 0.1 % Tween-20. Compound pre-incubation for 30 minutes at room temperature with 150 nM of 6his-Sortilin before 5 nM [3H]-Neurotensin and Ni chelate imaging beads (Perkin Elmer) were added, after 6 hours the plate was read on a ViewLux with 360 s exposure time. Dose-response evaluation of compounds was performed with 8 concentrations of drugs (covering 3 decades). IC50 values were calculated by nonlinear regression using the sigmoid concentration-response (variable slope) using CDD Vault software. All values reported are average of at least 2 determinations.
Background: SPA uses beads or plates that emit light when radiolabelled molecules are held near them.

Assay [1] has as its target T3, Sortilin receptor at the cell surface (Homo sapiens, UniProt Q99523).
T3 construct: expressed in transfected cells; host or cells: HEK293
T3 sequence (Q99523 78-831): T1 sequence (Q99523 78-831)
Put plainly: Progranulin cell surface engagement assay. Type of assay: cell-based. As to conditions: displacement of 100 nM PGRN-AF647, HEK293 engineered to express sortilin, on ice; average of at least 2 determinations. The protocol: PGRN is a sortilin ligand.
Compound affinity was determined by measuring the ability of compounds to displace the binding of Progranulin-Alexa Fluor 647 (PGRN-AF647) binding to the Sortilin receptor at the cell surface. HEK293 engineered to express sortilin were pre-incubated with compound for 30 minutes on ice in 20 µl assay buffer containing 1% BSA in PBS. Dose-response evaluation of compounds was performed with 10 concentrations of drugs (10 point half log curve). PGRN-AF647 was added at 100 nM concentration in 20 µl assay buffer for 2 hours on ice. Data was acquired using iQue flow cytometer (IntelliCyt). IC50 values were calculated by nonlinear regression using the sigmoid concentration-response (variable slope) using CDD Vault software. All values reported are average of at least 2 determinations.

For orientation: Kd means the constant that tells how readily two partners part at equilibrium. With `CC(C)(C)CC[C@@](C)(NCc1ccccc1)C(=O)O` [Example 3, (R)-2-benzylamino-2,5,5-trimethylhexanoic acid], the Kd on Human (6-His)Sortilin amounted to 21400 nM.

As a reminder, the IC50 is the concentration needed to halve the response being measured. Low readings indicate inhibition by little substance, high ones a need for much substance. In the case of `CC(C)(C)CCC(C)(NCc1ccccc1)C(=O)O` (racemic) [Example 1, rac-2-benzylamino-2,5,5-trimethylhexanoic acid], the Kd at Human (6-His)Sortilin is 621 nM. The concentration for half-maximal inhibition (IC50) on h-Sortilin amounted to 2500 nM. At h-Sortilin, `COc1cccc(CNC(C)(CCC(C)(C)C)C(=O)O)c1` (racemic) [Example 4, 2-((3-methoxybenzyl)amino)-2,5,5-trimethylhexanoic acid hydrochloride] yielded a concentration for half-maximal inhibition (IC50) of 4020 nM. `COc1cccc(CN[C@@](C)(CCC(C)(C)C)C(=O)O)c1` [Example 5, (S)-2-((3-methoxybenzyl)amino)-2,5,5-trimethylhexanoic acid hydrochloride] had an IC50 at h-Sortilin of 1330 nM.

In the case of `CC(C)(C)CC[C@](C)(NCc1ccccc1)C(=O)O` [Example 2, (S)-2-benzylamino-2,5,5-trimethylhexanoic acid], the Kd on Human (6-His)Sortilin was determined as 393 nM. Further, the IC50 on h-Sortilin was found to be 2970 nM. `CC(C)(C)CCC(C)(NCc1cncnc1)C(=O)O` (racemic) [Example 8, 2,5,5-trimethyl-2-{[(5-pyrimidinyl)methyl]amino}hexanoic acid]: the dissociation constant Kd at Human (6-His)Sortilin worked out at 4220 nM. The same compound gave a concentration for half-maximal inhibition (IC50) at h-Sortilin of 840 nM.

As for `CC(C)(C)CCC(C)(NCc1cncnc1)C(=O)O` (stereo not drawn) [Example 11], on Human (6-His)Sortilin, the Kd was found to be 73500 nM. Still for that read-out and setting: as for `COc1cccc(CNC(C)(CCC(C)C)C(=O)O)c1` (racemic) [Example 7, 2-{[(m-methoxyphenyl)methyl]amino}-2,5-dimethylhexanoic acid], the figure is 1270 nM. On to `CC(C)(C)CCC(C)(NCCCc1ccccc1)C(=O)O` (racemic) [Example 9, 2,5,5-trimethyl-2-(3-phenylpropylamino)hexanoic acid], for which, at h-Sortilin, the IC50 came to 9740 nM. As to `CC(C)(C)CC[C@](C)(NCc1cncnc1)C(=O)O` (single isomer, unassigned) [Example 10], the Kd on Human (6-His)Sortilin was found to be 804 nM. The figures for the concentration for half-maximal inhibition (IC50) (on h-Sortilin; in assay [1]) were 383 nM and 680 nM, respectively.
